Test results from patent US20050124684A1, “5-(hydroxymethyl) furfural and derivatives as inhibitors of TNFalpha and IL-1beta production” (priority 2003, published 2005).

Experiments:
TNFα = experiment: Inhibition of LPS-induced TNFα expression in PBMCs (ELISA); format: cell-based; conditions: LPS-stimulated PBMCs; for Concentration of TNFα in PBMCs / Inhibition ratio of production of TNFα in PBMCs: overnight
Protocol: (§1) Peripheral blood […] (PBMCs) were isolated from fresh blood using a Ficoll-Paque Plus reagent (Amersham Bioscience) according to the protocol recommended by the manufacturer. The cells were suspended in a RPMI 1640 medium containing 10% FBS at a concentration of 1×10^5 cells/ml and seeded in a 96-well plate (1×10^4 cells total in each well). Each reaction was carried out in three wells. […] In a positive control, dexamethason (DEX), an anti-inflammatory agent, instead of 5-HMF, was added (final concentration 10 μM). In a positive control, 10 μl of the medium, instead of 5-HMF, was added. The plate was incubated at 37° C. under 5% CO2 for 15 minutes. After 10 μl aliquots of 100 μg/ml of lipopolysaccharide (LPS) were added to all wells except for the negative control, the plate was incubated at 37° C. under 5% CO2 overnight. The plate was spun at 1000 rpm for 15 minutes and the supernatants were collected. The concentrations of TNFα and IL-1β were measured by the TNFα ELISA (Enzyme Linked Immunosorbent Assay) Kit and IL1-β ELISA Kit (Jingmei Bioengineer Technology). The inhibition ratios of TNFα and IL1-β were calculated as follows and the results are shown in Tables 1 and 2: TNFα Inhibition Ratio (%)=[TNFα]control−[TNFα]5-HMF/[TNFα]control×100% IL1-β Inhibition Ratio (%)=[IL1-β]control−[IL1-β]5-HMF/[IL1-β]control×100% where [TNFα]5-HMF is the concentration of TNFα in PBMCs treated with 5-HMF and LPS, [TNFα]control is the concentration of TNFα in PBMCs treated with LPS and the medium, [IL1-β]5-HMF is the concentration of IL1-β in PBMCs treated with 5-HMF and LPS, and [IL1-β]control is the concentration of IL1-β in PBMCs treated with LPS and the medium.

IL-1β = experiment: Inhibition of LPS-induced IL-1β expression in PBMCs (ELISA); format: cell-based; conditions: LPS-stimulated PBMCs; for Concentration of IL-1β in PBMCs / Inhibition ratio of production of IL-1β in PBMCs: overnight
Protocol: as §1

[1] = at the concentration of 300 μg/ml

O=Cc1ccc(CO)o1 [5-HMF, 5-(hydroxymethyl)furfural]
Concentration of TNFα in PBMCs (TNFα; 5-HMF 3 μg/ml): 124.4 ± 15.2 pg/mL | Inhibition ratio of production of TNFα in PBMCs (TNFα; 5-HMF 3 μg/ml): 15.7 ± 10.3% | Concentration of TNFα in PBMCs (TNFα; 5-HMF 10 μg/ml): 107.9 ± 20.0 pg/mL | Inhibition ratio of production of TNFα in PBMCs (TNFα; 5-HMF 10 μg/ml): 26.8 ± 13.6% | Concentration of TNFα in PBMCs (TNFα; 5-HMF 30 μg/ml): 82.9 ± 27.9 pg/mL | Inhibition ratio of production of TNFα in PBMCs (TNFα; 5-HMF 30 μg/ml): 43.8 ± 18.9% | Concentration of TNFα in PBMCs (TNFα; 5-HMF 100 μg/ml): 39.3 ± 19.7 pg/mL | Inhibition ratio of production of TNFα in PBMCs (TNFα; 5-HMF 100 μg/ml): 73.4 ± 13.4% | Concentration of TNFα in PBMCs (TNFα; 5-HMF 300 μg/ml): 0.3 ± 6.4 pg/mL | Inhibition ratio of production of TNFα in PBMCs (TNFα; 5-HMF 300 μg/ml): 99.3 ± 4.3% | Inhibition of expression of TNFα (in words) (TNFα; [1]): completely inhibited | Inhibition of expression of TNFα (in words) (TNFα; over the tested concentrations): concentration-dependent | Concentration of IL-1β in PBMCs (IL-1β; 5-HMF 3 μg/ml): 69.9 ± 12.6 pg/mL | Inhibition ratio of production of IL-1β in PBMCs (IL-1β; 5-HMF 3 μg/ml): 40.2 ± 10.8% | Concentration of IL-1β in PBMCs (IL-1β; 5-HMF 10 μg/ml): 62.7 ± 10.5 pg/mL | Inhibition ratio of production of IL-1β in PBMCs (IL-1β; 5-HMF 10 μg/ml): 46.4 ± 9.0% | Concentration of IL-1β in PBMCs (IL-1β; 5-HMF 30 μg/ml): 40.1 ± 2.4 pg/mL | Inhibition ratio of production of IL-1β in PBMCs (IL-1β; 5-HMF 30 μg/ml): 65.7 ± 2.0% | Concentration of IL-1β in PBMCs (IL-1β; 5-HMF 100 μg/ml): 13.0 ± 3.7 pg/mL | Inhibition ratio of production of IL-1β in PBMCs (IL-1β; 5-HMF 100 μg/ml): 88.8 ± 3.1% | Concentration of IL-1β in PBMCs (IL-1β; 5-HMF 300 μg/ml): 0 ± 5.0 pg/mL | Inhibition ratio of production of IL-1β in PBMCs (IL-1β; 5-HMF 300 μg/ml): 100 ± 4.3% | Inhibition of expression of IL-1β (in words) (IL-1β; [1]): completely inhibited | Inhibition of expression of IL-1β (in words) (IL-1β; over the tested concentrations): concentration-dependent

C[C@@H]1C[C@H]2[C@@H]3CCC4=CC(=O)C=C[C@]4(C)[C@@]3(F)[C@@H](O)C[C@]2(C)[C@@]1(O)C(=O)CO [DEX, dexamethason, reference compound]
Concentration of TNFα in PBMCs (TNFα; 10 μM DEX): 39.5 ± 9.0 pg/mL | Inhibition ratio of production of TNFα in PBMCs (TNFα; 10 μM DEX): 73.2 ± 6.1% | Concentration of IL-1β in PBMCs (IL-1β; 10 μM DEX): 20.2 ± 7.0 pg/mL | Inhibition ratio of production of IL-1β in PBMCs (IL-1β; 10 μM DEX): 82.7 ± 6.0%
